Test [1] concerns the target T1, human β3 -adrenergic receptor (Homo sapiens, UniProt P13945).
T1 construct: expressed in transfected cells; host or cells: CHO-K1 (ATCC CCL 61), clone CHO/pKREX10-36
As to the kind of experiment: Human β3-adrenergic receptor-stimulating activity (cAMP accumulation in CHO/pKREX10-36 cells). The settings on record: for stimulating activity of human β3 -adrenergic receptor (in words): conclusion from Table 5; for Ratio of EC50 β2 /β3: ratio of EC50 β2-receptor to EC50 β3-receptor; for Emax: read-out: I.A. value β3 -receptor. The format is cell-based. As for the experimental part:
Establishment of the cell line highly expressing human β3 -adrenergic receptor
Separately, another expression vector for animal cells, pSV2-neo [Southern and Berg, J. Mol. Appl. Genet. […] These DNAs were ligated with DNA Ligation Kit (Takara Shuzo Co., Ltd.) and were introduced into E. coli HB101 in a conventional manner to give the transformants. Plasmid DNAs were prepared from the transformants and digested with a restriction endonuclease PstI. A clone which produced about 3.8 kbp, 2.2 kbp, 1.4 kbp, and 0.9 kbp fragments was selected to give a plasmid named pKCN0.
The reaction mixture was used for transformation of E. coli HB101 and plasmid DNAs were prepared from the selected transformants. The plasmid DNAs were digested with restriction endonucleases DraI and HindIII, and a clone which produced about 430 bp fragment was selected to give a plasmid named pKCN1 for expression vector.
10% Dimethyl sulfoxide was added to the reaction mixture at the PCR reaction.
After the reaction mixture was digested with restriction endonucleases Sse8387I and StuI, about 1.3 kbp fragment was isolated by electrophoresis. This fragment was ligated with expression vector pKCN1 which was digested with restriction endonucleases Sse8387I and EcoRV, and the resultant was introduced into E. coli HB101 in a conventional manner. Plasmid DNA was prepared from the selected transformant and the nucleotide sequence of the about 1.3 kbp fragment obtained by digestion of the plasmid DNA with restriction endonucleases Sse8387I and XhoI was determined. […] This plasmid for expressing human β3 -adrenergic receptor was named as pKREX10.
The reaction mixture was filtered with glass filter GF/C (Whatman) presoaked with 0.3% polyethyleneimine and washed by using BIO-DOT apparatus (Bio-Rad Laboratories), and the radioactivity on the filter was counted by γ-ray counter. […] Establishment of the cell line highly expressing human β2 -adrenergic receptor
(§1) Experiment 1 Human β-adrenergic receptor-stimulating activity:
(§2) The cells were peeled off by incubation with phosphate-buffered saline containing 0.5 mM EDTA at 37° C. for 10 minutes after the medium was removed. The CHO/pKREX10-36 cells were collected by centrifugation, and suspended in Hanks' balanced salts (ICN Biomedicals) containing 1 mM L-ascorbic acid and 1 mM 3-isobutyl-1-methylxanthine at the concentration of about 2×10^6cells/ml. This suspension (100μl) and a test compound were mixed in the same balanced salt (500 μl) and incubated at 37° C. for 30 minutes, followed by boiling for 5 minutes to terminate the reaction. After centrifugation of the reaction mixture, the amount of cAMP in the supernatant was measured by using cAMP EIA System (Amersham).

The target in test [2] is T2, human β2 -adrenergic receptor (Homo sapiens, UniProt P07550).
T2 construct: expressed in transfected cells; host or cells: CHO-K1, clone CHO/pKREX21-8
T2 sequence (P07550 whole entry): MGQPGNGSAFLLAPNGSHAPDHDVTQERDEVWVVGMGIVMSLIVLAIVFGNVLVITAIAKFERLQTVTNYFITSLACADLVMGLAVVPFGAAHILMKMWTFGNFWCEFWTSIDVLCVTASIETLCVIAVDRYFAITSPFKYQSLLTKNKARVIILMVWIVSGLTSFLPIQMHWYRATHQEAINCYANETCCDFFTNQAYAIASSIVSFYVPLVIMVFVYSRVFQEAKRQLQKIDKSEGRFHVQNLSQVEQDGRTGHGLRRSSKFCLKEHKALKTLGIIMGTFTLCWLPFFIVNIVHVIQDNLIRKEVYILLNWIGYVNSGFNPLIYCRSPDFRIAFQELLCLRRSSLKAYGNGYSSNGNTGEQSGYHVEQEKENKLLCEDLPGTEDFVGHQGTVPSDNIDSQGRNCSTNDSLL
Kind of test: Human β2-adrenergic receptor-stimulating activity (cAMP accumulation in CHO/pKREX21-8 cells). The format is cell-based. The settings on record: for Emax: read-out: I.A. value β2 -receptor; for I.A. value β2 -receptor: intrinsic activity: maximal cAMP response relative to 10^-5 M (-)-isoproterenol = 100%.
From the text: cDNA was synthesized with Poly(A)^+ RNA derived from human brain (Clontech: trade number; CL6516-1) by using SuperScript Systems (Life Technologies).
After the reaction mixture was digested with restriction endonucleases Sse8387I and HindIII, about 1.4 kbp fragment was isolated by electrophoresis. This fragment was ligated with expression vector pKCN1 digested with restriction endonucleases Sse8387I and HindIII, and was introduced into E. coli HB101 in a conventional manner. Plasmid DNA was prepared from the selected transformant, and the nucleotide sequence of the about 1.4 kbp fragment obtained by digestion of this plasmid DNA with restriction endonucleases Sse8387I and HindIII was determined. […] This plasmid was named as pKREX21 for highly expressing human β2 -adrenergic receptor, and was introduced into CHO-K1 in the same manner as the method of establishment of the cell line highly expressing human β3 -adrenergic receptor.
as §1, §2
Similarly, the amount of cAMP was measured by using CHO/pKREX21-8 for highly expressing human β2 -adrenergic receptor instead of the CHO/pKREX10-36 for highly expressing human β3 -adrenergic receptor.

Setting [3] is: 50% of cAMP accumulation, CHO/pKREX10-36, 37° C., 30 minutes, read-out: EC50 value β3 -receptor.

This note sets out measurements from US5817689A, “Indole derivatives having a 2-phenyl-ethanolamino-substituted lower alkyl group at the 2-or 3-position thereof” (priority 1994, dated 1998).

Where a name gives a salt, the structure may show the parent alone. Read-outs that look alike come from different tables or passages of the source.

T1 sequence (P13945 whole entry): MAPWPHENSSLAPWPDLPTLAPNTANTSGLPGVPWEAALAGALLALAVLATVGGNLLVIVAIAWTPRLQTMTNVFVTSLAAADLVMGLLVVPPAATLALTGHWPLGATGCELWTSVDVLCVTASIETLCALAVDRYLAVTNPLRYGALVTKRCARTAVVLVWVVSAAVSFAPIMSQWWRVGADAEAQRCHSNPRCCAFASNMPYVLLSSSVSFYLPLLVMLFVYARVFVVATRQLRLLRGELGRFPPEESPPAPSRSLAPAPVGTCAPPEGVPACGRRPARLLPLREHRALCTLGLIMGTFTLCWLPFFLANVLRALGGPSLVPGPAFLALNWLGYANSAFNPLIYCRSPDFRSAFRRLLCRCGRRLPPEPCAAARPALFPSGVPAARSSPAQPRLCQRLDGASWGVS

On to `COC(=O)COc1cccc2c(CC(C)NC[C@H](O)c3cccc(Cl)c3)c[nH]c12` (stereo partly drawn) [Example 14, 2-[3-(7-methoxycarbonylmethoxyindol-3-yl)-2-propylamino]-(1R)-1-(3-chlorophenyl)ethanol], for which, in test [1], the EC50 (usually the concentration at which the effect is half-maximal) was 0.00043 µM, the “stimulating activity of human β3 -adrenergic receptor (in words)” value (“stimulating activity of human β3” for short) is given as “potent stimulating activity of human β3 -adrenergic receptor”, the “Ratio of EC50 β2 /β3” value is reported as 14.0 and the Emax turned out to be 95%. Also, the “adrenoceptor selectivity for human β3 -adrenergic receptor (in words)” value in test [1] (β3 versus β2, conclusion from Table 5) was “excellent adrenoceptor selectivity for human β3 -adrenergic receptor”. Besides, in test [2], a half-maximal response (EC50) required 0.006 µM and the Emax was found to be 29%.

With `OC(CNCCc1c[nH]c2ccc(Cl)cc12)c1ccccc1` (stereo not shown) [Compound A, reference compound], the EC50 was determined as 0.91 µM in test [1] (setting [3]) and 0.41 µM in test [2] (50% of cAMP accumulation, CHO/pKREX21-8, 37° C., 30 minutes, read-out: EC50 value β2 -receptor). Besides, the “stimulating activity of human β3” value in test [1] is given as “quite weak human β3 -adrenergic receptor-stimulating activity”. Further, in test [1], the “Ratio of EC50 β2 /β3” value is on record as 0.5. The Emax came out at 92% in test [1] and 16% in test [2].

As to `O=[N+]([O-])c1cccc(C(O)CNCCc2c[nH]c3ccccc23)c1` (stereo not shown) [Compound C, reference compound], the EC50 in test [1] (setting [3]) turned out to be 0.54 µM. Moreover, in test [1], the “stimulating activity of human β3” value was “quite weak human β3 -adrenergic receptor-stimulating activity” and the Emax amounted to 105%. Besides, the “I.A. value β2 -receptor” value in test [2] is 5%.

Consider `CC(C)NC[C@H](O)c1ccc(O)c(O)c1` [IP, (-)Isoproterenol, reference compound], for which, in test [1] (intrinsic activity: maximal cAMP response relative to 10^-5 M (-)-isoproterenol = 100%), the “I.A. value β3 -receptor” value was 100%.

Regarding `COc1cccc2c(CC(C)NC[C@H](O)c3cccc(Cl)c3)c[nH]c12` (single isomer, unassigned) [Example 1-A-b, 2-[(2S or 2R)-3-(7-methoxyindol-3-yl)-2-propylamino]-(1R)-1-(3-chlorophenyl)ethanol], in test [1], a half-maximal response (EC50) required 0.00036 µM and the Emax stood at 89%. Moreover, in test [2], the EC50 amounted to 0.0036 µM and the Emax was determined as 35%.

`OC(CNCCc1c[nH]c2ccccc12)c1ccccc1` (stereo not shown) [Compound B, reference compound]: the EC50 in test [1] (setting [3]) was 0.18 µM. For the same compound, in test [1], the “stimulating activity of human β3” value is reported as “quite weak human β3 -adrenergic receptor-stimulating activity” and the Emax was 100%. For the same compound, the “I.A. value β2 -receptor” value in test [2] turned out to be 8%.

`CC(Cc1c[nH]c2cc(OCC(=O)O)ccc12)NCC(O)c1cccc(Cl)c1` (stereo not shown) [Example 13, 2-[3-(6-carboxymethoxyindol-3-yl)-2-propylamino]-1-(3-chlorophenyl)ethanolsodium salt]: in test [1], the EC50 worked out at 0.031 µM and the Emax stood at 101%. Further, in test [2], the “I.A. value β2 -receptor” value amounted to 6%.

Regarding `CC(Cc1c[nH]c2c(OCc3ccccc3)cccc12)NCC(O)c1cccc(Cl)c1` (stereo not shown) [Example 4], in test [1], the EC50 was found to be 0.016 µM, the “Ratio of EC50 β2 /β3” value is on record as 2.7 and the Emax was 116%. Also, in test [2], the EC50 came to 0.043 µM and the Emax stood at 36%.

On to `COc1ccc2c(CC(C)NCC(O)c3cccc(Cl)c3)c[nH]c2c1OC` (stereo not shown) [Example 12], for which, in test [1], the EC50 stood at 0.004 µM, the “Ratio of EC50 β2 /β3” value is 7.8 and the Emax amounted to 98%. In test [2], the response was half-maximal at 0.031 µM (EC50) and the Emax was 13%.

Take `CCOc1cccc2c(CC(C)NC[C@H](O)c3cccc(Cl)c3)c[nH]c12` (stereo partly drawn) [Example 2-A, 2-[3-(7-ethoxyindol-3-yl)-2-propylamino]-(1R)-1-(3-chlorophenyl)ethanol]: the EC50 in test [1] (setting [3]) worked out at 0.00096 µM; in test [2], 0.015 µM. Besides, the Emax in test [1] was 96%; in test [2], 23%.
